According to paper PMC8422652, “Neuromedin U induces an invasive phenotype in CRC cells expressing the NMUR2 receptor” (Journal of Experimental & Clinical Cancer Research : CR, 2021):

How the values were obtained:
[1] = tested on: ERK1/2 in Caco-2 NMU clones; assay: ERK1/2 kinase activation in Caco-2 NMU clones with inhibitor; type: cell-based, human; conditions: preincubated 1 h with 20 µM inhibitor, immunoblot, n ≥ 4
Experimental: CRC cells were lysed with RIPA buffer (100 mM TRIS-HCl, pH 7.5, 300 mM NaCl, 0.2 % SDS with 1 % IGEPAL CA-630 and the Halt™ Protease Inhibitor Cocktail (Thermo Fisher Scientific)) with subsequent centrifugation (18,000 x g, 4 °C, 20 min). Total protein concentration in lysate was quantified by BCA method (Pierce BCA Protein Assay; Thermo Fisher Scientific). Samples were loaded and separated by SDS-PAGE (Mini-PROTEAN TGX Stain-Free Gels; Bio-Rad Laboratories, CA, USA) and transferred onto nitrocellulose membranes (Bio-Rad Laboratories). NMU protein was detected with rabbit anti-NMU antibody (Genetex, CA, USA), for ERK1/2 kinases analysis mouse anti-ERK1/2 (Santa Cruz Biotechnology, USA) and rabbit anti-pERK1/2 antibodies (Invitrogen) were used. In EVs (extracellular vesicles) purity analysis we used rabbit antibodies anti-GM130, anti-annexin V and anti-flotilin-1 (Cell Signaling Technologies, Danvers, MA, USA). Proteins used as loading controls were detected by mouse anti-β-actin, mouse anti-α-tubulin or rabbit anti-GAPDH antibody (Abcam, Cambridge, GB). We used secondary HRP-conjugated goat anti-mouse (Santa Cruz Biotechnology) or anti-rabbit antibodies (Invitrogen). The signal was detected by chemiluminescence (Thermo Fisher Scientific) with Kodak BioMax Light Film from Eastman Kodak (NY, USA). […]

Caco-2 NMU1 clone = assay: Cell migration assay (Transwell); type: cell-based, human; conditions: 8 μm Transwell, 3 h, n = 4
Experimental: Migration and invasion assays were performed using an 8 μm pore size Transwell system (Thermo Fischer Scientific). First, 2 × 10^5 cells, were incubated with CellTracker™ Green CMFDA Dye (Invitrogen) for 30 min at 37 °C with following washing step with PBS. Cells resuspended in 200 ul of growth medium without FBS were added inside the insert fixed in the well with 600 ul medium with 10 % FBS. For invasion assays, the chamber was pre-coated with 1 mg/ml Matrigel (Corning). Cells were incubated for 3 h (migration) or 6 h (invasion) at 37 °C. Cells on the apical side of the chamber were gently scraped off using cotton swabs, filters were washed in PBS and pictures were taken under the microscope Nikon Eclipse TE 2000-U. Pictures analysis was done with the use of FIJI image processing package.

- Activity of the ERK1/2 signalling pathway in the presence of inhibitor [1]: sensitive
SMILES: COc1cccc(-c2cc(=O)c3ccccc3o2)c1N [PD98059]
- Cell migration in the presence of inhibitor (Caco-2 NMU1 clone): inhibited
